Reference: patent publication US20100298141A1, “SUBSTITUTED PYRIDINE N-OXIDE HERBICIDES” (E. I. DU PONT DE NEMOURS AND COMPANY, priority 2007, published 2010)

How the values were obtained:
[1] = test system: duck salad; assay: Test C flooded paddy test; format: in vivo, Heteranthera limosa; conditions: Flood
Outline: (§1)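 In-water treatment: compound dosed into 3 cm flood over soil, water level unchanged throughout. Controls run alongside; visual assessment at day 13–15.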

[2] = test system: yellow nutsedge; assay: Test C pre-/postemergence test; format: in vivo, Cyperus esculentus; conditions: for Plant response rating, Nutsedge, Yellow: 31 g ai/ha, scale 0 to 100 (0 no effect, 100 complete control)
Outline: (§2)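 Seeds were planted and treated preemergence with test chemical in a non-phytotoxic solvent mixture containing surfactant. Postemergence applications of the same formulation went onto plants 2 to 18 cm tall (1- to 4-leaf stage). A dash marks no test result.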

[3] = test system: woolly cupgrass; assay: Test C pre-/postemergence test; format: in vivo, Eriochloa villosa; conditions: for Plant response rating, Cupgrass, Woolly: 31 g ai/ha, scale 0 to 100 (0 no effect, 100 complete control)
Outline: as §2

[4] = test system: rice; assay: Test C flooded paddy test; format: in vivo, Oryza sativa; conditions: Flood
Outline: as §1

[5] = test system: kochia; assay: Test C pre-/postemergence test; format: in vivo, Kochia scoparia; conditions: for Plant response rating, Kochia: 31 g ai/ha, scale 0 to 100 (0 no effect, 100 complete control)
Outline: as §2

[6] = test system: green foxtail; assay: Test C pre-/postemergence test; format: in vivo, Setaria viridis
Outline: as §2

[7] = test system: cocklebur; assay: Test C pre-/postemergence test; format: in vivo, Xanthium strumarium; conditions: for Plant response rating, Cocklebur: 31 g ai/ha, scale 0 to 100 (0 no effect, 100 complete control)
Outline: as §2

[8] = test system: lambsquarters; assay: Test C pre-/postemergence test; format: in vivo, Chenopodium album; conditions: for Plant response rating, Lambsquarters: 31 g ai/ha, scale 0 to 100 (0 no effect, 100 complete control)
Outline: as §2

[9] = test system: morningglory; assay: Test A pre-/postemergence greenhouse test; format: in vivo, Ipomoea spp.; conditions: for Plant response rating, Morningglory: 0 to 100 scale where 0 is no effect and 100 is complete control; for Morningglory plant response rating: 0 to 100 scale
Outline: (§3)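 Two application timings were run side by side in the greenhouse. Before emergence, compound went onto the soil surface of loam–sand pots as a directed spray; after emergence, plants at 2–10 cm and the one- to two-leaf stage were treated. Visual injury versus controls was rated at approximately day ten.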

[10] = test system: blackgrass; assay: Test C pre-/postemergence test; format: in vivo, Alopecurus myosuroides; conditions: for Plant response rating, Blackgrass: 31 g ai/ha, scale 0 to 100 (0 no effect, 100 complete control)
Outline: as §2

[11] = test system: downy brome; assay: Test C pre-/postemergence test; format: in vivo, Bromus tectorum; conditions: for Plant response rating, Bromegrass, Downy: 31 g ai/ha, scale 0 to 100 (0 no effect, 100 complete control)
Outline: as §2

[12] = test system: wild oat; assay: Test C pre-/postemergence test; format: in vivo, Avena fatua; conditions: for Plant response rating, Oat, Wild: 31 g ai/ha, scale 0 to 100 (0 no effect, 100 complete control)
Outline: as §2

[13] = test system: redroot pigweed; assay: Test A pre-/postemergence greenhouse test; format: in vivo, Amaranthus retroflexus; conditions: for Plant response rating, Pigweed: 0 to 100 scale where 0 is no effect and 100 is complete control; for Pigweed plant response rating: 0 to 100 scale
Outline: as §3

[14] = test system: bermudagrass; assay: Test C pre-/postemergence test; format: in vivo, Cynodon dactylon; conditions: for Plant response rating, Bermudagrass: 31 g ai/ha
Outline: as §2

[15] = test system: soybean; assay: Test C pre-/postemergence test; format: in vivo, Glycine max; conditions: for Plant response rating, Soybean: 31 g ai/ha, scale 0 to 100 (0 no effect, 100 complete control)
Outline: as §2

[16] = test system: catchweed bedstraw; assay: Test C pre-/postemergence test; format: in vivo, Galium aparine; conditions: for Plant response rating, Galium: 31 g ai/ha, scale 0 to 100 (0 no effect, 100 complete control)
Outline: as §2

[17] = 62 g ai/ha, scale 0 to 100 (0 no effect, 100 complete control)
[18] = 250 g ai/ha, scale 0 to 100, 0 no effect, 100 complete control, 13 to 15 days
[19] = 62 g ai/ha, Preemergence, scale 0 to 100
[20] = 125 g ai/ha, preemergence, scale 0 (no effect) to 100 (complete control)
[21] = preemergence, 250 g ai/ha, scale 0 (no effect) to 100 (complete control)
[22] = Postemergence, 500 g ai/ha, 0 is no effect, 100 is complete control
[23] = Preemergence, 125 g ai/ha, 0 no effect, 100 complete control
[24] = 62 g ai/ha, Preemergence, scale 0 to 100 (0 no effect, 100 complete control)
[25] = Preemergence, scale 0 to 100 (0 no effect, 100 complete control)
[26] = 31 g ai/ha, scale 0 to 100 (0 no effect, 100 complete control)
[27] = 62 g ai/ha, scale 0 to 100, 0 no effect, 100 complete control, 13 to 15 days
[28] = 125 g ai/ha, scale 0 to 100, 0 no effect, 100 complete control, 13 to 15 days
[29] = Postemergence, 125 g ai/ha, 0 is no effect, 100 is complete control

CC(Oc1c(C[S+]([O-])c2ccc(Cl)c[n+]2[O-])c(C(F)(F)F)nn1C)C(F)(F)F (stereo not drawn) [Compound 87]
Plant response rating, Ducksalad [1, 17]: 50
Plant response rating, Ducksalad [1, 18]: 100
Nutsedge, Yellow plant response rating [2, 19]: 50
Nutsedge, Yellow plant response rating [2, 20]: 80
Plant response rating, Nutsedge, Yellow ([2]; Preemergence): 50
Nutsedge, Yellow plant response rating [2, 21]: 100
Cupgrass, Woolly plant response rating [3, 19]: 90
Cupgrass, Woolly plant response rating [3, 20]: 98
Plant response rating, Cupgrass, Woolly ([3]; Preemergence): 80
Cupgrass, Woolly plant response rating [3, 21]: 100
Plant response rating, Rice [4, 17]: 30
Plant response rating, Rice [4, 18]: 90
Kochia plant response rating [5, 19]: 75
Kochia plant response rating [5, 20]: 80
Plant response rating, Kochia ([5]; Preemergence): 50
Kochia plant response rating [5, 21]: 95
Foxtail, Green plant response rating [6, 19]: 100
Foxtail, Green plant response rating [6, 20]: 100
Plant response rating, Foxtail, Green ([6]; Preemergence, 31 g ai/ha, scale 0 to 100 (0 no effect, 100 complete control)): 95
Foxtail, Green plant response rating [6, 21]: 100
Cocklebur plant response rating [7, 19]: 0
Cocklebur plant response rating [7, 20]: 20
Plant response rating, Cocklebur ([7]; Preemergence): 0
Cocklebur plant response rating [7, 21]: 40
Lambsquarters plant response rating [8, 19]: 85
Lambsquarters plant response rating [8, 20]: 100
Plant response rating, Lambsquarters ([8]; Preemergence): 60
Lambsquarters plant response rating [8, 21]: 100
Plant response rating, Morningglory ([9]; Postemergence, 125 g ai/ha): 40
Morningglory plant response rating [9, 22]: 100
Morningglory plant response rating [9, 23]: 20
Plant response rating, Morningglory ([9]; Preemergence, 500 g ai/ha): 100
Blackgrass plant response rating [10, 19]: 100
Blackgrass plant response rating [10, 20]: 100
Plant response rating, Blackgrass ([10]; Preemergence): 100
Blackgrass plant response rating [10, 21]: 100
Plant response rating, Bromegrass, Downy ([11]; Preemergence): 80
Bromegrass, Downy plant response rating [11, 21]: 100
Oat, Wild plant response rating [12, 19]: 90
Oat, Wild plant response rating [12, 20]: 90
Plant response rating, Oat, Wild ([12]; Preemergence): 80
Oat, Wild plant response rating [12, 21]: 100
Plant response rating, Pigweed ([13]; Postemergence, 125 g ai/ha): 50
Pigweed plant response rating [13, 22]: 100
Pigweed plant response rating [13, 23]: 90
Plant response rating, Pigweed ([13]; Preemergence, 500 g ai/ha): 100
Bermudagrass plant response rating [14, 24]: 100
Bermudagrass plant response rating [14, 20]: 100
Plant response rating, Bermudagrass [14, 25]: 100
Bermudagrass plant response rating [14, 21]: 100
Soybean plant response rating [15, 19]: 65
Soybean plant response rating [15, 20]: 80
Plant response rating, Soybean ([15]; Preemergence): 65
Soybean plant response rating [15, 21]: 80
Galium plant response rating [16, 19]: 80
Galium plant response rating [16, 20]: 100
Plant response rating, Galium ([16]; Preemergence): 70
Galium plant response rating [16, 21]: 100

Cn1nc(C(F)(F)F)c(C(Cl)S(=O)(=O)c2cccc[n+]2[O-])c1OCC(F)(F)F (racemic) [Compound 36]
Plant response rating, Ducksalad [1, 26]: 85
Plant response rating, Ducksalad [1, 27]: 85
Plant response rating, Ducksalad [1, 28]: 90
Plant response rating, Ducksalad [1, 18]: 90
Nutsedge, Yellow plant response rating [2, 19]: 50
Nutsedge, Yellow plant response rating [2, 20]: 100
Plant response rating, Nutsedge, Yellow ([2]; Preemergence): 0
Nutsedge, Yellow plant response rating [2, 21]: 100
Cupgrass, Woolly plant response rating [3, 19]: 55
Cupgrass, Woolly plant response rating [3, 20]: 100
Plant response rating, Cupgrass, Woolly ([3]; Preemergence): 55
Cupgrass, Woolly plant response rating [3, 21]: 100
Plant response rating, Rice [4, 26]: 0
Plant response rating, Rice [4, 27]: 25
Plant response rating, Rice [4, 28]: 60
Plant response rating, Rice [4, 18]: 75
Kochia plant response rating [5, 20]: 20
Plant response rating, Kochia ([5]; Preemergence): 0
Kochia plant response rating [5, 21]: 100
Foxtail, Green plant response rating [6, 19]: 70
Foxtail, Green plant response rating [6, 20]: 75
Foxtail, Green plant response rating [6, 21]: 100
Cocklebur plant response rating [7, 19]: 0
Cocklebur plant response rating [7, 20]: 0
Plant response rating, Cocklebur ([7]; Preemergence): 0
Cocklebur plant response rating [7, 21]: 0
Lambsquarters plant response rating [8, 19]: 60
Lambsquarters plant response rating [8, 20]: 80
Plant response rating, Lambsquarters ([8]; Preemergence): 0
Lambsquarters plant response rating [8, 21]: 95
Morningglory plant response rating [9, 29]: 0
Morningglory plant response rating [9, 22]: 30
Morningglory plant response rating [9, 23]: 0
Plant response rating, Morningglory ([9]; Preemergence, 500 g ai/ha): 80
Blackgrass plant response rating [10, 19]: 95
Blackgrass plant response rating [10, 20]: 95
Plant response rating, Blackgrass ([10]; Preemergence): 60
Blackgrass plant response rating [10, 21]: 100
Bromegrass, Downy plant response rating [11, 19]: 0
Bromegrass, Downy plant response rating [11, 20]: 30
Plant response rating, Bromegrass, Downy ([11]; Preemergence): 0
Bromegrass, Downy plant response rating [11, 21]: 50
Oat, Wild plant response rating [12, 19]: 30
Oat, Wild plant response rating [12, 20]: 40
Plant response rating, Oat, Wild ([12]; Preemergence): 25
Oat, Wild plant response rating [12, 21]: 80
Pigweed plant response rating [13, 29]: 10
Pigweed plant response rating [13, 22]: 60
Pigweed plant response rating [13, 23]: 100
Plant response rating, Pigweed ([13]; Preemergence, 500 g ai/ha): 100
Bermudagrass plant response rating [14, 24]: 100
Bermudagrass plant response rating [14, 20]: 100
Plant response rating, Bermudagrass [14, 25]: 85
Bermudagrass plant response rating [14, 21]: 100
Soybean plant response rating [15, 19]: 5
Soybean plant response rating [15, 20]: 15
Plant response rating, Soybean ([15]; Preemergence): 0
Soybean plant response rating [15, 21]: 20
Galium plant response rating [16, 19]: 0
Galium plant response rating [16, 20]: 100
Plant response rating, Galium ([16]; Preemergence): 0
Galium plant response rating [16, 21]: 100
